From patent US20240408169A1 (priority 2023, published 2024)
pIC50: −log10 of the molar value. Like-named read-outs stand apart in the source and are kept apart here. *1 amine or outer side, *2 acyl side, *3 side chain or, on linkers, in order; H or OH if unused. Where a SMILES comes first, the peptide text is derived from it. Bridges are numbered along the chain shown (N, C = ends). [ ]: non-standard residue; d: D form. The star is where a group is joined. NMePhe(2-(4-MorPh),5-Cl) = CN[C@@H](Cc1cc(Cl)ccc1-c1ccc(N2CCOCC2)cc1)C(=O)O; X61 = Cc1nc2c(F)cc(-c3ccc(Cl)cc3C[C@@H](C(=O)[*:2])N(C)[*:1])cc2n1C(C)C; X72 = CN([C@@H](Cc1cc(Cl)ccc1-c1cnn(C2CCS(=O)(=O)C2)c1)C(=O)[*:2])[*:1]; X82 = CN([C@@H](Cc1cc(Cl)ccc1-c1cnn(S(C)(=O)=O)c1)C(=O)[*:2])[*:1]; X100 = CC(=O)NC1CC=C(c2ccc(Cl)cc2C[C@@H](C(=O)[*:2])N(C)[*:1])CC1; X69 = CCOC(=O)N1CC=C(c2ccc(Cl)cc2C[C@@H](C(=O)[*:2])N(C)[*:1])CC1; X116 = CN([C@@H](Cc1cc(Cl)ccc1-c1cnc2c(c1)ncn2C)C(=O)[*:2])[*:1]; X56 = CN1CCc2cc(-c3ccc(Cl)cc3C[C@@H](C(=O)[*:2])N(C)[*:1])ccc2C1; NMehhhLys(Me) = CN([C@@H](CCCCCCCN(C)[*:3])C(=O)[*:2])[*:1]; X15 = CN([C@@H](Cc1cc(Cl)ccc1-c1cnn2c1CCC2)C(=O)[*:2])[*:1]; X17 = CN([C@@H](Cc1cc(Cl)cnc1N1CCOCC1)C(=O)[*:2])[*:1]; Oxane2carbonyl(2R-CF3) = O=C([C@@]1(C(F)(F)F)CCCCO1)*; X33 = CN([C@@H](Cc1cc(Cl)cc2c1OCCO2)C(=O)[*:2])[*:1]; cBuCO(3,3-F2-1-CF3) = O=C(C1(C(F)(F)F)CC(F)(F)C1)*; Pro(trans-4-F) = O=C(O)[C@@H]1C[C@@H](F)CN1; Gly(cPr) = N[C@H](C(=O)O)C1CC1

Columns and labels:
CyclinA2/CDK2 = target: T1, CyclinA2/CDK2 (Homo sapiens, UniProt P20248); experiment: Fluorescence Polarization (FP) competitive binding assay, Cyclin A2/Cdk2;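 further: plates equilibrated two hours at room temperature before polarization reading, IC50 fitted from eight-concentration compound titration curves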
T1 construct: purchased CRELUX Protein Services

WI-38 cells = experiment: MTT proliferation assay, WI-38; assay type: cell-based; settings: 3 days compound exposure, 1:3 serial dilution starting at 10 μM;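 further: Eight- or ten-point dilution series, with exposure length chosen to span about three to four cell doublings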
CyclinE1/CDK2 = target: T2, CyclinE1/CDK2 (Homo sapiens, UniProt P24864); experiment: Fluorescence Polarization (FP) competitive binding assay, Cyclin E1/Cdk2;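 further: readings taken after two-hour equilibration at room temperature in HEPES buffer with NaCl, DTT, NP-40 and BSA, IC50 fitted from eight-concentration serial dilution series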
T2 construct: purchased Eurofins, discovery 14-475

NCI-H1048 cells = experiment: MTT proliferation assay, NCI-H1048; assay type: cell-based; settings: 5 days compound exposure, 1:3 serial dilution starting at 10 μM;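 further: Dose-response in 96-well plates over 8 or 10 concentration points, with exposure spanning 3-4 cell doublings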
CyclinB1/CDK1 = target: T3, CyclinB1/CDK1 (Homo sapiens, UniProt P14635); experiment: Fluorescence Polarization (FP) competitive binding assay, Cyclin B1/Cdk1;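 further: fluorescence polarization read after equilibration at room temperature, with IC50 taken from serially diluted dose-response curves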
T3 construct: purchased Eurofins, discovery 14-450

OVCAR3 cells = experiment: MTT proliferation assay, OVCAR3; assay type: cell-based; settings: 5 days compound exposure, 1:3 serial dilution starting at 10 μM;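 further: compound given as an 8- or 10-point series, one day after plating, with exposure covering roughly 3-4 cell doublings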
[1] = 8 nM Cyclin A2/Cdk2, 2 nM FAM probe, average of 2-3 independent experiments, read-out: Cyclin A FP IC50
[2] = 10 nM Cyclin E1/Cdk2, 2 nM FAM probe, average of 2-3 independent experiments, read-out: Cyclin E FP IC50
[3] = 10 nM Cyclin B1/Cdk1, 2 nM FAM probe; average of 2-3 independent experiments; read-out: Cyclin B FP IC50
[4] = read-out: Cyclin B FP IC50; 10 nM Cyclin B1/Cdk1, 2 nM FAM probe; average of 2-3 independent experiments

| Compound | pIC50 (CyclinA2/CDK2; [1]) | GI50 (WI-38 cells) | pIC50 (CyclinE1/CDK2; [2]) | GI50 (NCI-H1048 cells) | pIC50 (CyclinB1/CDK1; [3]) | GI50 (OVCAR3 cells) | pIC50 (CyclinA2/CDK2) | pIC50 (CyclinE1/CDK2) | pIC50 (CyclinB1/CDK1; [4]) |
| --- | --- | --- | --- | --- | --- | --- | --- | --- | --- |
| CCOC(=O)N1CC=C(c2ccc(Cl)cc2C[C@H]2C(=O)N(C)CCCCCCC[C@H](N(C)C(=O)[C@@H](NC(=O)[C@@H]3C[C@@H](F)CN3C(=O)C3(C(F)(F)F)CC(F)(F)C3)C3CC3)C(=O)N[C@@H](CC(C)C)C(=O)N2C)CC1 [Example 145] ({cBuCO(3,3-F2-1-CF3)}-[Pro(trans-4-F)][Gly(cPr)][NMehhhLys(Me)]L[X69]; lactam 3-C) | 7.70 | 10100 nM | 5.89 | 70 nM | 7.70 | 80 nM | – | – | – |
| CC(C)C[C@@H]1NC(=O)[C@@H](N(C)C(=O)[C@@H](NC(=O)[C@@H]2C[C@@H](F)CN2C(=O)C2(C(F)(F)F)CC(F)(F)C2)C2CC2)CCCCCCCN(C)C(=O)[C@H](Cc2cc(Cl)ccc2-c2cnn(C3CCS(=O)(=O)C3)c2)N(C)C1=O (stereo partly drawn) [Example 253] ({cBuCO(3,3-F2-1-CF3)}-[Pro(trans-4-F)][Gly(cPr)][NMehhhLys(Me)]L[X72]; lactam 3-C) | 7.70 | 9930 nM | 6.48 | 40 nM | 7.70 | 20 nM | – | – | – |
| CC(=O)N1CC=C(c2ccc(Cl)cc2C[C@H]2C(=O)NCCC=CCCC[C@H](N(C)C(=O)[C@@H](NC(=O)[C@@H]3C[C@@H](F)CN3C(=O)C3(C(F)(F)F)CC(F)(F)C3)C3CC3)C(=O)N[C@@H](CC(C)C)C(=O)N2C)CC1 [Example 286] | 7.10 | 6500 nM | 5.40 | 60 nM | 7.70 | 50 nM | – | – | – |
| COC(=O)CC[C@H](NC(=O)[C@@H]1C[C@@H](F)CN1C(=O)C1(C(F)(F)F)CC(F)(F)C1)C(=O)N(C)[C@H]1CCCCCCCN(C)C(=O)[C@H](Cc2cc(Cl)ccc2-c2ccc(N3CCOCC3)cc2)N(C)C(=O)[C@H](CC(C)C)NC1=O [Example 415] ({cBuCO(3,3-F2-1-CF3)}-[Pro(trans-4-F)]E(OMe)[NMehhhLys(Me)]L[NMePhe(2-(4-MorPh),5-Cl)]; lactam 3-C) | 7.70 | 14100 nM | 6.52 | 10 nM | 7.70 | 10 nM | – | – | – |
| CC(C)C[C@@H]1NC(=O)[C@@H](N(C)C(=O)[C@@H](NC(=O)[C@@H]2C[C@@H](F)CN2C(=O)C2(C(F)(F)F)CC(F)(F)C2)C2CC2)CCCCCCN(C)C(=O)[C@H](Cc2cc(Cl)ccc2-c2cnn(C3CC3)c2)N(C)C1=O [Example 73] | 7.52 | 3650 nM | 6.03 | 40 nM | 7.70 | 60 nM | – | – | – |
| CC(=O)NC1CC=C(c2ccc(Cl)cc2C[C@H]2C(=O)N(C)CCCCCCC[C@H](N(C)C(=O)[C@@H](NC(=O)[C@@H]3C[C@@H](F)CN3C(=O)C3(C(F)(F)F)CC(F)(F)C3)C3CC3)C(=O)N[C@@H](CC(C)C)C(=O)N2C)CC1 (stereo partly drawn) [Example 60] ({cBuCO(3,3-F2-1-CF3)}-[Pro(trans-4-F)][Gly(cPr)][NMehhhLys(Me)]L[X100]; lactam 3-C) | 7.70 | 5720 nM | 6.13 | 10 nM | 7.70 | 10 nM | – | – | – |
| CC(C)C[C@@H]1NC(=O)[C@@H](N(C)C(=O)[C@@H](NC(=O)[C@@H]2C[C@@H](F)CN2C(=O)C2(C(F)(F)F)CC(F)(F)C2)C2CC2)CCCCCCCN(C)C(=O)[C@H](Cc2cc(Cl)ccc2-c2cnc3c(c2)ncn3C)N(C)C1=O [Example 177] ({cBuCO(3,3-F2-1-CF3)}-[Pro(trans-4-F)][Gly(cPr)][NMehhhLys(Me)]L[X116]; lactam 3-C) | 7.70 | 8960 nM | 6.34 | 10 nM | 7.70 | 10 nM | – | – | – |
| CC(C)C[C@@H]1NC(=O)[C@@H](N(C)C(=O)[C@@H](NC(=O)[C@@H]2C[C@@H](F)CN2C(=O)[C@@]2(C(F)(F)F)CCCCO2)C2CC2)CCCCCCCN(C)C(=O)[C@H](Cc2cc(Cl)ccc2-c2cnn(S(C)(=O)=O)c2)N(C)C1=O [Example 299] ({Oxane2carbonyl(2R-CF3)}-[Pro(trans-4-F)][Gly(cPr)][NMehhhLys(Me)]L[X82]; lactam 3-C) | 7.70 | 14300 nM | 6.89 | 10 nM | 7.70 | 10 nM | – | – | – |
| CCN(C(=O)[C@@H](NC(=O)[C@@H]1C[C@@H](F)CN1C(=O)C1(C(F)(F)F)CC(F)(F)C1)C1CC1)[C@H]1CCCCCCCN(C)C(=O)[C@H](Cc2cc(Cl)cnc2OC2CC2)N(C)C(=O)[C@H](CC(C)C)NC1=O [Example 219] | – | 14100 nM | – | 40 nM | – | 80 nM | 7.00 | 5.84 | 7.70 |
| Cc1nc2c(F)cc(-c3ccc(Cl)cc3C[C@H]3C(=O)N(C)CCCCCCC[C@H](N(C)C(=O)[C@@H](NC(=O)[C@@H]4C[C@@H](F)CN4C(=O)C4(C(F)(F)F)CC(F)(F)C4)C4CC4)C(=O)N[C@@H](CC(C)C)C(=O)N3C)cc2n1C(C)C [Example 231] ({cBuCO(3,3-F2-1-CF3)}-[Pro(trans-4-F)][Gly(cPr)][NMehhhLys(Me)]L[X61]; lactam 3-C) | – | 13400 nM | – | 20 nM | – | 40 nM | 7.22 | 5.53 | 7.70 |
| CC(C)C[C@@H]1NC(=O)[C@@H](N(C)C(=O)[C@@H](NC(=O)[C@@H]2C[C@@H](F)CN2C(=O)C2(C(F)(F)F)CC(F)(F)C2)C2CC2)CCCCCCCN(C)C(=O)[C@H](Cc2cc(Cl)cnc2N2CCOCC2)N(C)C1=O [Example 320] ({cBuCO(3,3-F2-1-CF3)}-[Pro(trans-4-F)][Gly(cPr)][NMehhhLys(Me)]L[X17]; lactam 3-C) | 7.52 | 15500 nM | 5.84 | 10 nM | 7.70 | 20 nM | – | – | – |
| CC(=O)N1CC=C(c2ccc(Cl)cc2C[C@H]2C(=O)NCCCCC=CC[C@H](N(C)C(=O)[C@@H](NC(=O)[C@@H]3C[C@@H](F)CN3C(=O)C3(C(F)(F)F)CC(F)(F)C3)C3CC3)C(=O)N[C@@H](CC(C)C)C(=O)N2C)CC1 [Example 18] | 7.05 | 9030 nM | 5.21 | 170 nM | 7.70 | 340 nM | – | – | – |
| CC(C)C[C@@H]1NC(=O)[C@@H](N(C)C(=O)[C@@H](NC(=O)[C@@H]2C[C@@H](F)CN2C(=O)C2(C(F)(F)F)CC(F)(F)C2)C2CC2)CCCCCCCN(C)C(=O)[C@H](Cc2cc(Cl)cc3c2OCCO3)N(C)C1=O [Example 321] ({cBuCO(3,3-F2-1-CF3)}-[Pro(trans-4-F)][Gly(cPr)][NMehhhLys(Me)]L[X33]; lactam 3-C) | 7.70 | 89800 nM | 7.00 | 10 nM | 7.70 | 10 nM | – | – | – |
| CC(C)C[C@@H]1NC(=O)[C@@H](N(C)C(=O)[C@H](CCC(=O)N2CCN(C)CC2)NC(=O)[C@@H]2C[C@@H](F)CN2C(=O)C2(C(F)(F)F)CC(F)(F)C2)CCCCCCCN(C)C(=O)[C@H](Cc2cc(Cl)ccc2-c2ccc(N3CCOCC3)cc2)N(C)C1=O [Example 420] | 7.70 | 3510 nM | 6.72 | 10 nM | 7.70 | 20 nM | – | – | – |
| CC(C)C[C@@H]1NC(=O)[C@@H](N(C)C(=O)[C@@H](CC(=O)[C@@H]2C[C@@H](F)CN2C(=O)C2(C(F)(F)F)CC(F)(F)C2)C2CC2)CCCCCCN(C)C(=O)[C@H](Cc2cc(Cl)ccc2C2=CCOCC2)N(C)C1=O [Example 71] | 7.70 | 13800 nM | 5.80 | 70 nM | 7.70 | 90 nM | – | – | – |
| CC(C)C[C@@H]1NC(=O)[C@@H](N(C)C(=O)[C@@H](NC(=O)[C@@H]2C[C@@H](F)CN2C(=O)C2(C(F)(F)F)CC(F)(F)C2)C2CC2)CCCCCCCN(C)C(=O)[C@H](Cc2cc(Cl)ccc2-c2ccc3c(c2)CCN(C)C3)N(C)C1=O [Example 407] ({cBuCO(3,3-F2-1-CF3)}-[Pro(trans-4-F)][Gly(cPr)][NMehhhLys(Me)]L[X56]; lactam 3-C) | 7.70 | 3010 nM | 5.84 | 10 nM | 7.70 | 20 nM | – | – | – |
| CC(C)C[C@@H]1NC(=O)[C@@H](N(C)C(=O)[C@@H](NC(=O)[C@@H]2C[C@@H](F)CN2C(=O)C2(C(F)(F)F)CC(F)(F)C2)C2CC2)CCCCCCCN(C)C(=O)[C@H](Cc2cc(Cl)ccc2-c2cnn3c2CCC3)N(C)C1=O [Example 190] ({cBuCO(3,3-F2-1-CF3)}-[Pro(trans-4-F)][Gly(cPr)][NMehhhLys(Me)]L[X15]; lactam 3-C) | 7.70 | 1980 nM | 6.18 | 10 nM | 7.70 | 10 nM | – | – | – |
| CC(C)C[C@@H]1NC(=O)[C@@H](N(C)C(=O)[C@@H](NC(=O)[C@@H]2C[C@@H](F)CN2C(=O)C2(C(F)(F)F)CCC2)C2CC2)CC=CCCCCNC(=O)[C@H](Cc2cc(Cl)cnc2OC2CC2)N(C)C1=O (single isomer, unassigned) [Example 107-P1] | 6.60 | 5290 nM | 6.27 | 700 nM | 7.70 | 1010 nM | – | – | – |
